These results are taken from ChEMBL document CHEMBL1201862, “PubChem BioAssay data set” (2004).

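Cells were grown in 96-well plates and exposed to each compound for 48 hours at five concentrations; endpoints were interpolated linearly between bracketing concentrations, or set to the highest concentration if not reached. GI50 marks 50% less growth.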 Calls of active or inactive are those of the source. Rule as the data show it: active = GI50 up to about 1.1 µM and inactive = higher.

Test systems include A498; ACHN; BT-549; COLO 205; HCT-15; HL-60; KM12; LOX IMVI; M14; Malme-3M; NCI-H522; OVCAR-3; OVCAR-8; RXF 393; SF-295; SF-539; SK-OV-3; SN12C; SW-620; TK-10.
Common to all, as to assay: NCI tumour cell line growth inhibition, 48 h

As for `COc1cc2c(cc1OCCCCOc1cc(-c3ccc(F)cc3)nc(C)n1)N=C[C@@H]1CCCN1C2=O`, the GI50 in the assay with A498 was 1.01 µM (active); with ACHN, 0.189 µM (active); in the assay with BT-549, 0.579 µM (active); in the assay with COLO 205, 0.346 µM (active); with HCT-15, 0.701 µM; in the assay with HL-60, 0.279 µM (active). In addition, the GI50 in the assay with KM12 was 0.728 µM (active); with LOX IMVI it was 0.166 µM (active); with M14, 0.678 µM (active); with Malme-3M, 0.82 µM (active); in the assay with NCI-H522 it was 0.212 µM (active); with OVCAR-3, 0.336 µM (active). For the same compound, the GI50 in the assay on OVCAR-8 was 0.989 µM (active); in the assay on RXF 393 it was 0.429 µM (active); in the assay on SF-295 it was 0.303 µM (active); with SF-539, 0.927 µM (active); in the assay with SK-OV-3 it was 3.19 µM (inactive); in the assay on SN12C, 0.796 µM (active). Further, the GI50 in the assay on SW-620 was 0.855 µM (active); in the assay with TK-10, 0.224 µM (active).
Take `C[C@@]12C(=O)OC(=O)[C@]1(C)[C@H]1CC[C@@H]2O1` [CANTHARIDIN]: the GI50 in the assay with A498 is 1.12 µM (inactive); in the assay with ACHN it was 1.18 µM (inactive); with BT-549, 1.7 µM (inactive); in the assay on COLO 205, 0.427 µM (active); in the assay with HCT-15, 4.06 µM; in the assay on HL-60 it was 1.63 µM (inactive). In addition, the GI50 in the assay with KM12 is 5.42 µM (inactive); in the assay on LOX IMVI, 2.23 µM (inactive); in the assay with M14 it was 1.7 µM (inactive); with Malme-3M it was 1.34 µM (inactive); in the assay with NCI-H522, 0.935 µM (active); with OVCAR-3, 0.759 µM (active). For the same compound, the GI50 with OVCAR-8 was 5.98 µM (inactive); with RXF 393, 0.484 µM (active); in the assay with SF-295, 1.37 µM (inactive); in the assay with SF-539, 2.04 µM (inactive); with SK-OV-3, 2.17 µM (inactive); in the assay with SN12C it was 2.01 µM (inactive). Moreover, the GI50 in the assay with SW-620 was 3.84 µM (inactive); in the assay on TK-10 it was 0.313 µM (active).
For the compound `NC(=O)NO` [HYDROXYUREA], the GI50 in the assay with A498 was 693 µM (inactive); in the assay with ACHN, 108 µM (inactive); with BT-549, 1660 µM (inactive); in the assay with COLO 205 it was 1740 µM (inactive); with HCT-15, 871 µM; in the assay on HL-60, 18.4 µM (inactive). In addition, the GI50 with KM12 was 902 µM (inactive); in the assay with LOX IMVI, 700 µM (inactive); in the assay on M14, 597 µM (inactive); in the assay with Malme-3M, 1170 µM (inactive); with NCI-H522 it was 729 µM (inactive); in the assay with OVCAR-3, 1240 µM (inactive). The GI50 is 504 µM (inactive) in the assay with OVCAR-8; 857 µM (inactive) in the assay on RXF 393; 313 µM (inactive) with SF-295; 315 µM (inactive) with SF-539; 1680 µM (inactive) in the assay on SK-OV-3; 738 µM (inactive) in the assay on SN12C. Further, the GI50 with SW-620 is 1090 µM (inactive); in the assay with TK-10, 1980 µM (inactive).
Regarding `O=C(O)Cc1cccc2c(=O)cc(-c3ccccc3)oc12` [MITOFLAXONE], the GI50 in the assay on A498 was 226 µM (inactive); with ACHN, > 250 µM (inactive); in the assay on BT-549, 204 µM (inactive); in the assay on COLO 205, > 250 µM (inactive); in the assay with HCT-15, 220 µM; in the assay on HL-60, > 250 µM (inactive). Further, the GI50 in the assay with KM12 is 240 µM (inactive); in the assay on LOX IMVI, 243 µM (inactive); in the assay on M14, > 250 µM (inactive); in the assay on Malme-3M, > 250 µM (inactive); in the assay on NCI-H522, 228 µM (inactive); in the assay with OVCAR-3, 235 µM (inactive). The GI50 was > 175 µM (inactive) in the assay with OVCAR-8; 244 µM (inactive) in the assay on RXF 393; 242 µM (inactive) in the assay on SF-295; > 250 µM (inactive) in the assay on SF-539; 242 µM (inactive) with SK-OV-3; 238 µM (inactive) in the assay on SN12C. Besides, the GI50 in the assay with SW-620 and with TK-10 was > 250 µM (inactive) throughout.
